# In patent publication US10793509B2, “Compounds useful in the treatment of neoplastic diseases” (UNIVERSITÄT ZU KÖLN, priority 2013, dated 2020):
# Several values for one entry are separate records, joined by “and”; a condition that tells them apart may be missing. Equal entries are not always repeated.
# Columns and labels:
# [1] = tested on: peripheral blood mononuclear cells (PBMCs) of healthy donors; assay: AnnexinV/PI assay on PBMCs of healthy donors; assay type: cell-based; settings: Homo sapiens, PBMC; 24 h incubation, 0.01-100 μM, 5*10^6 cells/ml, normalized to DMSO control; read-out: AnnexinV/PI assay EC50 PBMCs
# Procedure: PBMCs or CLL cells (5*10^6 cells/ml) were incubated for 24 h with different compounds at concentrations from 0.01 to 100 μM. Cell survival was normalized to DMSO control [vehicle]. See Example 1.
# Primary CLL or peripheral blood mononuclear cells of healthy donors (5*10^6/ml) were incubated for 24 h with different compounds according to the invention and NO-ASA as a control. The compounds were added in different concentrations, in particular in concentrations from 0.01-100 μM. Cell survival was assessed by AnnexinV/PI assay (Kit commercially available, e.g. by Biotium Inc, USA; or Phoenix Flow Systems, US), the results were normalized to DMSO control [vehicle] and dose response curves were calculated using a non-linear regression model.
# [2] = tested on: JVM3 cells (human chronic B cell leukemia cell line); assay: CLL xenograft mouse model (JVM3 cells subcutaneously in SCID beige mice); assay type: in vivo
# Procedure: Treatment with B9 leads to significant tumor inhibition compared to vehicle control (p=0.015) after nine days with increasing significance up to day 19 of treatment (p=0.0003). IRmax value of 65% for B9 over vehicle control was determined. *=p≤0.05, **=p≤0.01, ***=p≤0.001 calculated by unpaired two-tailed students test, †=death, IR=Inhibition ratio.
# Due to its favorable characteristics B9 was chosen for in vivo testing in a CLL xenograft mouse model. JVM3 cells (human chronic B cell leukemia cell line) were injected subcuntaneously into the flank of immunincompetent mice. The developing solid tumor was treated with intraperitoneal injections of 8 mg/kg of compound B9 or sesame oil (vehicle) every other day (see FIG. 4).
# 1*10^7 JVM3 cells were injected subcutaneously in SCID beige mice (CB17.Cg-Prkdc^scidLyst^bg-J/Crl). Tumors were measured every other day by caliper and the tumor volume was calculated V=(Length*(0.5*Width^2)). Mice carrying a tumor of more than 50 mm^3 were treated every other day with either sesame oil (vehicle control) or with 8 mg/kg B9 solved in sesame oil via intraperitoneal injections. The abortion criteria given by the GV-SOLAS for tumor bearing mice were applied. p-values were calculated using unpaired two-tailed Students test.
# [3] = tested on: JVM-3; assay: CellTiter-Glo ATP assay, JVM-3 cell line; assay type: cell-based, human; settings: 24 h, 0.01-1000 μM
# Procedure: Several cell lines (n=5) were treated with different concentrations of p-NO-ASA, B9, B12 and B13 ranging between 0.01 μM and 1000 μM for 24 hours followed by addition of luminogenic CellTiter-Glo®-reagent. […] For each cell line the order of used compound in the bar chart is from left to right as following: p-NO-ASA, B9, B12, B13.
# Treatment success in CLL may depend on cytogenetic and molecular parameters as for instance del13q or TP53 gene disruption. Therefore, the NO-ASA derivatives were examined on (chronic) B cell lymphoma cell lines with different geno- and phenotypes (JVM3, EHEB, U2932, MEC-1, GRANTA-519). The cells were treated with concentrations between 0.01 and 1000 μM for 24 h followed by the addition of luminogenic CellTiter-Glo® reagent.
# [4] = tested on: CLL cells without a TP53 mutation; assay: FACS analysis of treated CLL cells without TP53 mutation; assay type: cell-based, human; settings: 24 h, 0.01-100 μM, FIG. 6
# Procedure: Isolated, primary CLL cells were treated for 24 h with the EC50 of the different compounds and the ATP-content was measured by flow cytometry. For each used compound the order of mean EC50 concentrations in the bar chart is from left to right as following: EC50 CLL cells TP53 unmut (unmutated=without mutation), EC50 CLL cells TP53 mut (mutated=with mutation).
# Further, the derivatives B9, B12 and B13 were tested in comparison to para-NO-ASA on CLL cells which harbour a TP53 mutation. The patient subgroup with a TP53 disruption is characterized by a considerable dismal prognosis. CLL cells of patients with and without the TP53 mutation were treated with five different concentrations (0.01, 0.1, 1, 10, 100 μM) of para-NO-ASA, B9, B12 and B13 for 24 h.
# [5] = tested on: acute myeloid leukemia cell line SH2; assay: Viability assay (ATP content, CellTiter-Glo), SH2; assay type: cell-based; settings: 24 h
# Procedure: In the following experiment the possible therapeutic window for NO-ASA derivatives was investigated. […] The melanoma cell line MelJuso, the colon carcinoma cell line SW480, the small cell lung cancer cell line HCC44, the ovarian adenocarcinoma cell line COLO704 and the acute myeloid leukemia cell line SH2 were treated with concentrations of p-NO-ASA and B9, B12 and B13 in a range between 0.01 μM and 100 μM for 24 h, followed by addition of luminogenic CellTiter-Glo® reagent.
# Table accompanying Example 5. Overview of the EC50 values of cell survival analyzed by ATP content and Annexin V/PI assay. n.t.; not tested
# [6] = tested on: ovarian adenocarcinoma cell line COLO704; assay: Annexin V/PI assay, COLO704; assay type: cell-based; settings: COLO 704, 24 h
# [7] = tested on: phosphorylated NFkappaBp65 protein; assay: Western blot of NFkappaB phosphorylation status in CLL cells; assay type: cell-based, human; settings: 3 h
# Procedure: CLL cells were treated with B1, B9, B12 and B13 (0.1 μM, 1 μM, 10 μM) for 3 h. Untreated and DMSO (1%) treated cells served as control. GAPDH=loading control.
# The BCR signalling pathway plays an important pathogenic role in CLL and lymphomas leading often to a constitutive active NFkappaB (in this state NFkappaB is phosphorylated). Therefore the influence of the derivatives on the phosphorylation status of NFkappaB was analyzed by Western Blot. CLL cells were treated with 0.1 μM, 1 μM or 10 μM of each derivate, respectively, for 3 h. CLL cells were treated with B1, B9, B12 and B13 (0.1 μM, 1 μM, 10 μM) for 3 h. Untreated and DMSO (1%) treated cells served as control. GAPDH=loading control.
# [8] = mice, 8 mg/kg i.p. every other day
compound,measurement,setting,value
"O=C(Oc1ccc(CO[N+](=O)[O-])cc1)c1ccccc1 [B9, 4-((nitrooxy)methyl)phenyl benzoate]",EC50,[1],79.5 µM
same,"Inhibition ratio of tumor growth (IR, IRmax) over vehicle control","[2]; 8 mg/kg i.p. every other day in sesame oil, highest at day 17",65.33% and 65%
same,tumor growth,[2]; 8 mg/kg i.p. every other day vs sesame oil vehicle,significant reduction in tumor growth
same,tumor volume,"[2]; Day 9 of treatment, 8 mg/kg i.p. every other day",82.97 mm^3
same,bodyweight,[2]; [8],A reduction of bodyweight was not observed
same,severe side effects,[2]; [8],Severe side effects were not observed
same,mobility after treatment,"[2]; mice, 8 mg/kg i.p. every other day, drinking and feeding normally",slightly reduced mobility for 15 to 30 min
same,ATP content in JVM-3,[3],reduced ATP content
same,effect on CLL cells without a TP53 mutation,[4],great effect
same,EC50,[5],0.16 µM
same,EC50,[6],7.25 µM
same,reduction of NFkappaB activity (phosphorylated NFkappaBp65),"[7]; CLL cells, 0.1, 1, 10 μM",concentration dependent reduction
same,concentration inducing the reduction of NFkappaB p65 protein,[7]; CLL cells,10 µM
